Assays:
[1] = tested on: Akt phosphorylation in MDA-MB-468; assay: Cellular inhibition of Akt phosphorylation; assay type: cell-based; details: Homo sapiens, MDA-MB-468, read-out: inhibition of Akt phosphorylation IC50
96 kinases = assay: KinomeScan screen versus another 96 kinases; assay type: binding
PI3Kβ D862Q = PI3Kβ D862Q (Homo sapiens, UniProt P42338, D862Q); details: cited from earlier work
Sequence of PI3Kβ D862Q (P42338 whole entry D862Q): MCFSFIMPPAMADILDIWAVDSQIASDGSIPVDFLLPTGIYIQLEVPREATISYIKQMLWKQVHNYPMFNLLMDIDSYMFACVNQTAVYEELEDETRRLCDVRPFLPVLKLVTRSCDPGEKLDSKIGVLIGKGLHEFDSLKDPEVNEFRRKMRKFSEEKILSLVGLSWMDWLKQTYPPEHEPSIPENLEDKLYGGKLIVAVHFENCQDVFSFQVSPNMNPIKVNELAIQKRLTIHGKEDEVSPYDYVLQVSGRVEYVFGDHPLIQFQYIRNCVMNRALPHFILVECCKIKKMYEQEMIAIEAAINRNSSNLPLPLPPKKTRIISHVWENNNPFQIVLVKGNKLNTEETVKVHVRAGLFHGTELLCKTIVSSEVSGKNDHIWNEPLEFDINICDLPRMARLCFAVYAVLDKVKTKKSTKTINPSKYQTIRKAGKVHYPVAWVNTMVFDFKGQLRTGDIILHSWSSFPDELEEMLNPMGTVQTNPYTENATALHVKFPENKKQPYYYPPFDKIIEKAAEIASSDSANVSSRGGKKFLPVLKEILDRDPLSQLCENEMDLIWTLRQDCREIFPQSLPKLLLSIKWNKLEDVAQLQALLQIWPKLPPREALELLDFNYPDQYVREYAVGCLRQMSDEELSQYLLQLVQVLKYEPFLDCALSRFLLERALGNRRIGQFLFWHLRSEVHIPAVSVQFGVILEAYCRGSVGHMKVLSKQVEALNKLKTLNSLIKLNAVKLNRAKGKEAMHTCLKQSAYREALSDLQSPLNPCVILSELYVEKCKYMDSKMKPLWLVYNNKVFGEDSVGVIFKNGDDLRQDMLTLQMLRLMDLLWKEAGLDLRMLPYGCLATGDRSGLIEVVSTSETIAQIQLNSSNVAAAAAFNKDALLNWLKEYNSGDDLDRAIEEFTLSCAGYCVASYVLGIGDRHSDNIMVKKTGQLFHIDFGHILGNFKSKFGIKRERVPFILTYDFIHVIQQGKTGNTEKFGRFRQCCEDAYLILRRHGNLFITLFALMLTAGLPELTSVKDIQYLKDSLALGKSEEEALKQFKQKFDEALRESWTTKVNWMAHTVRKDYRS
Sequence of PI3Kβ D862Q (P27986 whole entry partner): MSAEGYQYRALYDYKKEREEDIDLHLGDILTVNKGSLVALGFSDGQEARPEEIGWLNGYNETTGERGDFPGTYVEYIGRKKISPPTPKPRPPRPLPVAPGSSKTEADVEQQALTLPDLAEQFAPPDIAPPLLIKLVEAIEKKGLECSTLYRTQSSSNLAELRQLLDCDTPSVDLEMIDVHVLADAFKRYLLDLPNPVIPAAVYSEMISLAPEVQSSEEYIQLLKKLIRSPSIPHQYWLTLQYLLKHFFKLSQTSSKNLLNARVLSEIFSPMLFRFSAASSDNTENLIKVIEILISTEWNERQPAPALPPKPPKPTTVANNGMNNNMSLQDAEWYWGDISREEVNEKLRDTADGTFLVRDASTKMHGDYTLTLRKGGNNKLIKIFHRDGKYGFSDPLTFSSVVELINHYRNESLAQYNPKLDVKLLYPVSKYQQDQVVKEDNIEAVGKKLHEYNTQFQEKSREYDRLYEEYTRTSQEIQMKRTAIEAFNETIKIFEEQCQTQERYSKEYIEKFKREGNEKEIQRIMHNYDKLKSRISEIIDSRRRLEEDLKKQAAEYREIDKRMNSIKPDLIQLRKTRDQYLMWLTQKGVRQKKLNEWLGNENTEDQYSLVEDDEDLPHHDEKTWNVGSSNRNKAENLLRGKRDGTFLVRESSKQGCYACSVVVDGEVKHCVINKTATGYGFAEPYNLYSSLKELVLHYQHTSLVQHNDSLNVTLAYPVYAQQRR

Compound	IC50 [1] [nM]	KinomeScan binding affinity versus another 96 kinases (96 kinases)	effect of mutation D862Q in PI3Kβ on inhibition (PI3Kβ D862Q)
N[C@@H](Cc1ccccc1)C(=O)N1CCN(c2nc(N3CCOCC3)nc(-n3c(C(F)F)nc4ccccc43)n2)CC1 [Compound 21]	< 10	only the class II PI3K PI3KC2β showed binding affinity comparable to that seen for PI3Kβ	
Cc1cc(C(C)Nc2ccccc2)c2nc(N3CCOCC3)cc(=O)n2c1 (stereo not drawn) [TGX221]			unaffected
